Several values for one entry are separate records, joined by “and”; a condition that tells them apart may be missing. Equal entries are not always repeated. Structures can show the parent of a compound that is named as a salt.
How the values were obtained:
Beagle dogs = tested on: Beagle dogs
Protocol: This study was also conducted inter alia to determine the maximum tolerated dose (MTD) of the test item, mCBS, when administered by continuous (24 hours/day) intravenous infusion through a surgically-implanted catheter for 48 hours per dose level for up to 4 dose levels to Beagle dogs.
mCBS dose formulations were administered to Beagle dogs by continuous (24 hours/day) intravenous infusion for 48 hours per dose level for up to 4 dose levels, as described in the Table 15 below.
Parameters monitored during this phase of the study included mortality, clinical observations, body weights, and food consumption. Serial blood samples were collected from each animal to confirm mCBS plasma levels at the following time points: 24 and 48 hours post start of infusion of each dose level. Blood samples were also collected from each animal for clinical pathology evaluations (hematology, coagulation, and clinical chemistry) on Day 1, prior to administration of the new dose level on Days 3, 5, and 7, and on Day 9.

[1] = tested on: Human platelets in whole blood; test: Histone-induced platelet degranulation (ATP release); format: cell-based; conditions: compounds added prior to histones 400 μg/mL
mice = test: In-vivo histone toxicity assay, organ damage markers at 4 hr; set-up: species or system mouse; conditions: 6.25, 25 and 100 mg/kg i.p. 10 min prior to histones 50 mg/kg i.v.; blood at 4 hr
[2] = tested on: human microvascular endothelial cells (HMECs)
rat plasma proteins = test: Plasma protein binding by ultrafiltration, rat plasma; format: in vitro ADME; conditions: for Concentration of mCBS, 200 ng/mL Post-filter / Concentration of mCBS, 200 ng/mL Pre-filter / Concentration of mCBS, 2000 ng/mL Post-filter / Concentration of mCBS, 2000 ng/mL Pre-filter: replicates and Mean
Protocol: (§1) Protein binding was assessed by an ultrafiltration method using Centrifree® Ultrafiltration Devices with a 30000 dalton molecular weight cut-off point. Briefly, known concentrations of mCBS (as free base) were added to human, rat and dog plasma samples and incubated for 20 min at 37° C. The samples were then subject to ultrafiltration to separate protein bound and unbound drug.
(§2) mCBS stock solutions (10 μL) were spiked into solutions of each test matrix (490 μL) as listed below in Table 9 to have a final concentration of 200 ng/mL & 2000 ng/m L.
(§3) Spiked samples were then incubated at 37° C. for 20 minutes in a water bath. Aliquots of the samples from each test group (500 μL) were transferred to the ultrafiltration devices (n=3) and centrifuged for 20 minutes at 1000 g. After centrifugation, aliquots of the ultrafiltrates (50 μL) were transferred to separate test tubes for extraction, alongside duplicate aliquots of the samples prior to ultrafiltration from each test group.
(§4) For quantification of samples before ultrafiltration, samples were analysed against a freshly prepared standard curve in plasma.

[3] = HPLC analysis of mCBS in buffer formulations after 28 days; format: physicochemical; conditions: phosphate or citrate buffer, 25±2° C./60% RH and 40±2° C./75% RH
[4] = mCBS vs CBS levels in bulk powder stored at −20° C. (CAD); format: physicochemical
Protocol: Table 2b compares mCBS vs CBS levels in a representative batch of bulk powder when stored at −20° C. over 24 months. T is for time in months. T=0 or T0 represents analytical results carried out on completion of manufacture. Subsequent analysis indicated are relative to the initial analysis of the drug powder or formulation (e.g. […] Analytical method employing CAD (Charged Aerosol Detector) was used to measure the level of mCBS purity and its impurities and expressed as CAD %.

[5] = mCBS vs CBS levels in phosphate buffered pH 7.5 clinical trial formulation stored at 2-8° C. (CAD); format: physicochemical; conditions: 2-8° C.
dog plasma proteins = test: Plasma protein binding by ultrafiltration, dog plasma; format: in vitro ADME; conditions: for Concentration of mCBS, 200 ng/mL Post-filter / Concentration of mCBS, 200 ng/mL Pre-filter / Concentration of mCBS, 2000 ng/mL Post-filter / Concentration of mCBS, 2000 ng/mL Pre-filter: replicates and Mean
Protocol: as §1, §2, §3, §4

human platelets = test: Histone-induced platelet aggregation; format: cell-based; conditions: compounds added prior to histones 150 μg/mL
human plasma proteins = test: Plasma protein binding by ultrafiltration, human plasma; format: in vitro ADME; conditions: for Concentration of mCBS, 200 ng/mL Post-filter / Concentration of mCBS, 200 ng/mL Pre-filter / Concentration of mCBS, 2000 ng/mL Post-filter / Concentration of mCBS, 2000 ng/mL Pre-filter: replicates and Mean
Protocol: as §1, §2, §3, §4

[6] = Stability of mCBS vs CBS in formulated clinical material (HPLC); format: physicochemical; conditions: formulated clinical material in phosphate buffer, 5±3° C., 25±2° C./60% RH, 40±2° C./75% RH
Protocol: Stability studies were carried out at 5±3° C., 25±2° C./60% RH and 40±2° C./75% RH ° C. conditions. Levels of both mCBS and cellobiose sulfate (CBS) were tracked in formulated clinical material (i.e. mCBS in phosphate buffer) via HPLC.

[7] = mCBS 100 μg/mL added prior to histones 400 μg/mL, 60 min

CO[C@@H]1O[C@H](COS(=O)(=O)O)[C@@H](O[C@@H]2O[C@H](COS(=O)(=O)O)[C@@H](OS(=O)(=O)O)[C@H](OS(=O)(=O)O)[C@H]2OS(=O)(=O)O)[C@H](OS(=O)(=O)O)[C@H]1OS(=O)(=O)O [mCBS, β-O-methyl cellobioside sulfate]
steady-state plasma concentration (Css) at the highest dose level (Beagle dogs; 2788 mg/kg/day): higher than 300 μg/mL | maximum tolerated dose (MTD) (Beagle dogs; continuous (24 hours/day) IV infusion for 48 hours, free base corrected dose): 2788 mg/kg/day | dose-limiting toxicity (adverse clinical sign) (Beagle dogs; stepwise administration up to 2788 mg/kg/day): No dose-limiting toxicity | histone-induced platelet degranulation (ATP release) [1]: significantly reduced | protection from histone-induced organ damage (LDH, ALT, creatinine) (mice): protects animals from histone-mediated injury | effect of increasing concentration on viable/dead cells ([2]; histones 400 μg/mL, increasing concentrations of mCBS): an increase in viable cells (Calcein-AM uptake) and a reduction in dead cells (PI uptake) | HMECs reverted from PI uptake to PI exclusion and calcein-AM uptake ([2]; histones 400 μg/ml 60 min, then mCBS 100 μg/ml for 10 min): approximately 30% | protection from histone-mediated injury ([2]; mCBS 25 μg/mL + histones 400 μg/mL): reduced level of protection | dead cells (PI uptake) [2, 7]: 20% | viable cells (calcein-AM) [2, 7]: 74% | Plasma protein binding (rat plasma proteins; 200 ng/mL): 19.4% | Plasma protein binding (rat plasma proteins; 2000 ng/mL): 19.8% | Concentration of mCBS, 200 ng/mL Post-filter (rat plasma proteins): 164 ng/mL and 177 ng/mL and 167 ng/mL | Concentration of mCBS, 200 ng/mL Pre-filter (rat plasma proteins): 205 ng/mL and 217 ng/mL | Concentration of mCBS, 2000 ng/mL Post-filter (rat plasma proteins): 1710 ng/mL and 1740 ng/mL and 1690 ng/mL | Concentration of mCBS, 2000 ng/mL Pre-filter (rat plasma proteins): 2090 ng/mL and 2180 ng/mL | Concentration of mCBS, 200 ng/mL Post-filter (rat plasma proteins; mean): 170 ng/mL | Concentration of mCBS, 200 ng/mL Pre-filter (rat plasma proteins; mean): 211 ng/mL | Concentration of mCBS, 2000 ng/mL Post-filter (rat plasma proteins; mean): 1713 ng/mL | Concentration of mCBS, 2000 ng/mL Pre-filter (rat plasma proteins; mean): 2135 ng/mL | variation from nominal after 28 days [3]: ~2 % of nominal | stability when stored in powder ([4]; 24 months): high stability | level in bulk powder ([4]; T0 (months)): 98.56 CAD % | level in bulk powder ([4]; T1): 98.45 CAD % | level in bulk powder ([4]; T3): 98.28 CAD % | level in bulk powder ([4]; T6): 98.22 CAD % | level in bulk powder ([4]; T9): 97.77 CAD % | level in bulk powder ([4]; T12): 98.00 CAD % | level in bulk powder ([4]; T18): 97.94 CAD % | level in bulk powder ([4]; T24): 98.26 CAD % | level in phosphate buffered pH 7.5 formulation ([5]; T0 (months)): 98.33 CAD % | level in phosphate buffered pH 7.5 formulation ([5]; T2): 98.39 CAD % | level in phosphate buffered pH 7.5 formulation ([5]; T3): 98.37 CAD % | level in phosphate buffered pH 7.5 formulation ([5]; T7): 98.54 CAD % | level in phosphate buffered pH 7.5 formulation ([5]; T10): 98.47 CAD % | level in phosphate buffered pH 7.5 formulation ([5]; T13): 98.44 CAD % | level in phosphate buffered pH 7.5 formulation ([5]; T19): 98.78 CAD % | stability when stored in aqueous buffered solution ([5]; over 18 months): high stability | concentration that doubled the control clotting time (whole blood coagulation): 100000 ng/mL | reduction in anticoagulant activity compared to LMWH, Enoxaparin (whole blood coagulation): 110 fold | Plasma protein binding (dog plasma proteins; 200 ng/mL): 19.6% | Plasma protein binding (dog plasma proteins; 2000 ng/mL): 21.0% | Concentration of mCBS, 200 ng/mL Post-filter (dog plasma proteins): 194 ng/mL and 169 ng/mL and 186 ng/mL | Concentration of mCBS, 200 ng/mL Pre-filter (dog plasma proteins): 230 ng/mL and 225 ng/mL | Concentration of mCBS, 2000 ng/mL Post-filter (dog plasma proteins): 1970 ng/mL and 1840 ng/mL and 1900 ng/mL | Concentration of mCBS, 2000 ng/mL Pre-filter (dog plasma proteins): 2490 ng/mL and 2330 ng/mL | Concentration of mCBS, 200 ng/mL Post-filter (dog plasma proteins; mean): 183 ng/mL | Concentration of mCBS, 200 ng/mL Pre-filter (dog plasma proteins; mean): 228 ng/mL | Concentration of mCBS, 2000 ng/mL Post-filter (dog plasma proteins; mean): 1903 ng/mL | Concentration of mCBS, 2000 ng/mL Pre-filter (dog plasma proteins; mean): 2410 ng/mL | histone-induced platelet aggregation (human platelets): significantly reduced | Plasma protein binding (%) (human plasma proteins; 200 ng/mL): 22.3% | Plasma protein binding (%) (human plasma proteins; 2000 ng/mL): 15.8% | Concentration of mCBS, 200 ng/mL Post-filter (human plasma proteins): 181 ng/mL and 150 ng/mL and 169 ng/mL | Concentration of mCBS, 200 ng/mL Pre-filter (human plasma proteins): 217 ng/mL and 213 ng/mL | Concentration of mCBS, 2000 ng/mL Post-filter (human plasma proteins): 1860 ng/mL and 1750 ng/mL and 1770 ng/mL | Concentration of mCBS, 2000 ng/mL Pre-filter (human plasma proteins): 2190 ng/mL and 2070 ng/mL | Concentration of mCBS, 200 ng/mL Post-filter (human plasma proteins; mean): 167 ng/mL | Concentration of mCBS, 200 ng/mL Pre-filter (human plasma proteins; mean): 215 ng/mL | Concentration of mCBS, 2000 ng/mL Post-filter (human plasma proteins; mean): 1793 ng/mL | Concentration of mCBS, 2000 ng/mL Pre-filter (human plasma proteins; mean): 2130 ng/mL | level relative to starting amount (T=0) over time [6]: very stable
